Reference: patent US6989389B2, “Aryl ether substituted imidazoquinolines” (3M Innovative Properties Co., priority 2000, dated 2006)
Where two headings read alike, the source gives them in different places.

Columns and labels:
[1] = tested on: Peripheral blood mononuclear cells (PBMC); assay: Cytokine Induction in Human Cells (in vitro human blood cell system, IFN and TNF secreted into culture media); type: cell-based; parameters: key to Lowest Effective Concentration (μM) Tumor Necrosis Factor / Lowest Effective Concentration (μM) Interferon: *: no induction was seen at any of the tested concentrations; conditions: 18 to 24 hours, tested 30-0.014 μM; for minimal effective concentration: Homo sapiens, PBMC
Procedure, shortened: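 Human donor PBMC (2×10^6 cells/mL, RPMI complete) incubated 18–24 h at 37 °C, 5% CO2 with compound, 3-fold dilutions 30–0.014 μM, ≤1% DMSO. IFN-α measured by ELISA, TNF-α by ELISA or IGEN immunoassay in supernatants (pg/mL). Value is lowest concentration inducing each cytokine.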

[2] = lowest concentration found to induce interferon (α), ELISA, read-out: Lowest Effective Concentration (μM) Interferon
[3] = lowest concentration found to induce tumor necrosis factor (α), ELISA or IGEN assay, read-out: Lowest Effective Concentration (μM) Tumor Necrosis Factor
[4] = lowest concentration found to induce tumor necrosis factor (α), ELISA or IGEN assay
[5] = lowest concentration found to induce interferon (α), ELISA

melting point	SMILES	minimal effective concentration [1, 2]	minimal effective concentration [1, 3]	Lowest Effective Concentration (μM) Tumor Necrosis Factor [1, 4]	Lowest Effective Concentration (μM) Interferon [1, 5]
138 to 138.7 °C	CCCCCCCCc1nc2c(N)nc3ccccc3c2n1CCOCC#Cc1ccccc1 [Example 116, 2-Octyl-1-{2-[(3-phenylprop-2-ynyl)oxy]ethyl}-1H-imidazo[4,5-c]quinolin-4-amine]	–	–	*	*
103.8 to 104.5 °C	CCCCCCCCc1nc2c(N)nc3ccccc3c2n1CCOCCCc1ccccc1 [Example 117, 2-Octyl-1-[2-(3-phenylpropoxy)ethyl]-1H-imidazo[4,5-c]quinolin-4-amine]	–	–	*	*
129.7 to 130.7 °C	Cc1nc2c(N)nc3ccccc3c2n1CCOCCCc1ccccc1 [Example 119, 2-Methyl-1-[2-(3-phenylpropoxy)ethyl]-1H-imidazo[4,5-c]quinolin-4-amine]	0.01 µM	0.12 µM	–	–
134.5 to 135.5 °C	COCCc1nc2c(N)nc3ccccc3c2n1CCOCC#Cc1ccccc1 [Example 120, 2-(Methoxyethyl)-1-{2-[(3-phenylprop-2-ynyl)oxy]ethyl}-1H-imidazo[4,5-c]quinolin-4-amine]	0.01 µM	0.01 µM	–	–
103.8 to 104.5 °C	COCCc1nc2c(N)nc3ccccc3c2n1CCOCCCc1ccccc1 [Example 121, 2-(2-Methoxyethyl)-1-[2-(3-phenylpropoxy)ethyl]-1H-imidazo[4,5-c]quinolin-4-amine]	0.01 µM	0.04 µM	–	–
110.8 to 111.7 °C	CCOCc1nc2c(N)nc3ccccc3c2n1CCOCC#Cc1ccccc1 [Example 122, 2-(Ethoxymethyl)-1-{2-[(3-phenylprop-2-ynyl)oxy]ethyl}-1H-imidazo[4,5-c]quinolin-4-amine]	0.01 µM	0.12 µM	–	–
133 to 140 °C	CCCCc1nc2c(N)nc3ccccc3c2n1CCOCC#Cc1ccccc1 [Example 123, 2-Butyl-1-{2-[(3-phenylprop-2-ynyl)oxy]ethyl}-1H-imidazo[4,5-c]quinolin-4-amine]	0.12 µM	10 µM	–	–
80.8 to 81.3 °C	CCCCc1nc2c(N)nc3ccccc3c2n1CCOCCCc1ccccc1 [Example 124, 2-Butyl-1-[2-(3-phenylpropoxy)ethyl]-1H-imidazo[4,5-c]quinolin-4-amine]	1.11 µM	10 µM	–	–
144.5 to 146 °C	CCOCc1nc2c(N)nc3ccccc3c2n1CCOCc1ccccc1 [Example 125, 1-[2-(Benzyloxy)ethyl]-2-(ethoxymethyl)-1H-imidazo[4,5-c]quinolin-4-amine]	0.01 µM	0.37 µM	–	–
133 to 135 °C	CCCCc1nc2c(N)nc3ccccc3c2n1CCOCc1ccccc1 [Example 126, 1-[2-(Benzyloxy)ethyl]-2-butyl-1H-imidazo[4,5-c]quinolin-4-amine]	0.04 µM	0.04 µM	–	–
159 to 160 °C	Cc1nc2c(N)nc3ccccc3c2n1CCOCc1ccccc1 [Example 127, 1-[2-(Benzyloxy)ethyl]-2-methyl-1H-imidazo[4,5-c]quinolin-4-amine]	0.01 µM	0.12 µM	–	–
110 to 111 °C	CCCCCCCCc1nc2c(N)nc3ccccc3c2n1CCOCc1ccccc1 [Example 128, 1-[2-(Benzyloxy)ethyl]-2-octyl-1H-imidazo[4,5-c]quinolin-4-amine]	–	–	*	*
171 to 174 °C	COCCc1nc2c(N)nc3ccccc3c2n1CCOc1ccccc1 [Example 129, 2-(2-Methoxyethyl)-1-(2-phenoxyethyl)-1H-imidazo[4,5-c]quinolin-4-amine]	0.01 µM	0.04 µM	–	–
176.6 to 177.8 °C	CC(C)Cc1nc2c(N)nc3ccccc3c2n1CCOc1ccccc1 [Example 130, 2-Isobutyl-1-(2-phenoxyethyl)-1H-imidazo[4,5-c]quinolin-4-amine]	3.33 µM	3.33 µM	–	–
168.3 to 169.5 °C	CCCCc1nc2c(N)nc3ccccc3c2n1CCOc1ccccc1 [Example 132, 2-Butyl-1-(2-phenoxyethyl)-1H-imidazo[4,5-c]quinolin-4-amine]	0.01 µM	3.33 µM	–	–

The next lines start with the molecule.

SMILES	melting point	minimal effective concentration [1, 2]	minimal effective concentration [1, 3]	Lowest Effective Concentration (μM) Tumor Necrosis Factor [1, 4]	Lowest Effective Concentration (μM) Interferon [1, 5]
COc1ccc(CCCOCCn2cnc3c(N)nc4ccccc4c32)cc1 [Example 5, 1-{2-[3-(4-Methoxyphenyl)propoxy]ethyl}-1H-imidazo[4,5-c]quinolin-4-amine]	116 to 118 °C	0.12 µM	1.11 µM	–	–
CNS(=O)(=O)c1ccc(C)c(CCCOCCn2cnc3c(N)nc4ccccc4c32)c1 [Example 6, N^1,4-Dimethyl-3-{3-[2-(4-amino-1H-imidazo[4,5-c]quinolin-1-yl)ethoxy]propyl}-1-benzensulfonamide]	207 to 209 °C	0.12 µM	–	*	–
Cc1cccc(C)c1C#CCOCCn1cnc2c(N)nc3ccccc3c21 [Example 8, 1-(2-{[3-(2,6-Dimethylphenyl)-2-propynyl]oxy}ethyl)-1H-imidazo[4,5-c]quinolin-4-amine]	200 to 201 °C	1.11 µM	10 µM	–	–
Nc1nc2ccccc2c2c1ncn2CCOCC#Cc1ccc(Oc2ccccc2)cc1 [Example 9, 1-(2-{[3-(4-Phenoxyphenyl)-2-propynyl]oxy}ethyl)-1H-imidazo[4,5-c]quinolin-4-amine]	146 to 148 °C	–	–	*	*
Nc1nc2ccccc2c2c1ncn2CCOCC#Cc1ccccc1C(F)(F)F [Example 10, 1-[2-({3-[2-(Trifluoromethyl)phenyl]-2-propynyl}oxy)ethyl]-1H-imidazo[4,5-c]quinolin-4-amine]	154 to 155 °C	1.11 µM	10 µM	–	–
CCC(COCc1cccc(Cl)c1)n1cnc2c(N)nc3ccccc3c21 (stereo not drawn) [Example 17, 1-(1-{[(3-Chlorobenzyl)oxy]methyl}propyl)-1H-imidazo[4,5-c]quinolin-4-amine]	60 to 62 °C	0.12 µM	0.37 µM	–	–
N#Cc1ccc(COCCn2cnc3c(N)nc4ccccc4c32)cc1 [Example 19, 4-{[2-(4-Amino-1H-imidazo[4,5-c]quinolin-1-yl)ethoxy]methyl}benzonitrile]	238.1 to 239.2 °C	0.37 µM	–	*	–
Cc1ccc(C#CCOCCn2cnc3c(N)nc4ccccc4c32)cc1C [Example 23, 1-(2-{[3-(3,4-Dimethylphenyl)-2-propynyl]oxy}ethyl]-1H-imidazo[4,5-c]quinolin-4-amine]	214 to 216 °C	1.11 µM	–	*	–
CC[C@H](COCC#Cc1ccccc1)n1cnc2c(N)nc3ccccc3c21 [Example 108, 1-((1R)-1-{[(3-Phenylprop-2-ynyl)oxy]methyl}propyl)-1H-imidazo[4,5-c]quinolin-4-amine]	63 to 67 °C	0.00017 µM	0.04 µM	–	–
Nc1nc2ccccc2c2c1ncn2COCc1ccccc1 [Example 113, 1-[(Benzyloxy)methyl]-1H-imidazo[4,5-c]quinolin-4-amine]	168 to 172 °C	1.11 µM	–	*	–
Nc1nc2ccccc2c2c1ncn2CCOC/C=C/c1ccccc1 [Example 115, 1-(2-{[(2E)-3-Phenylprop-2-enyl]oxy}ethyl)-1H-imidazo[4,5-c]quinolin-4-amine]	183.7 to 184.3 °C	0.12 µM	1.11 µM	–	–
CC(C)c1nc2c(N)nc3ccccc3c2n1CCOc1ccccc1 [Example 131, 2-Isopropyl-1-(2-phenoxyethyl)-1H-imidazo[4,5-c]quinolin-4-amine]	229 to 231 °C	–	10 µM	–	*
Nc1nc2ccccc2c2c1nc(COc1ccccc1)n2CCOc1ccccc1 [Example 133, 1-(2-Phenoxyethyl)-2-(phenoxymethyl)-1H-imidazo[4,5-c]quinolin-4-amine]	168.5 to 170 °C	3.33 µM	–	*	–
COc1ccc(Cc2nc3c(N)nc4ccccc4c3n2CCOc2ccccc2)cc1 [Example 134, 2-(4-Methoxybenzyl)-1-(2-phenoxyethyl)-1H-imidazo[4,5-c]quinolin-4-amine]	201 to 203.6 °C	–	–	*	*
Nc1nc2ccccc2c2c1nc(C1CCCC1)n2CCOc1ccccc1 [Example 135, 2-Cyclopentyl-1-(2-phenoxyethyl)-1H-imidazo[4,5-c]quinolin-4-amine]	216 to 217.9 °C	–	–	*	*
